Patent publication EP4763228A1, “PENTACYCLIC ACTIVE COMPOUND AND CONJUGATE THEREOF AND USE THEREOF” (Keymed Biosciences (Chengdu) Co., Ltd., priority 2023, dated 2025)

Tests used:
Assay in all cases: In vitro proliferation inhibition of compounds of formula (GH), CCK8, 6 days
Type in all cases: cell-based, human
A549 tumor cells = system: A549 tumor cells
Method: (§1) The object of this experiment is to test the in vitro killing activity of the compounds of the formula (GH) of the present disclosure on A549 tumor cells (human lung cancer cells, Beijing Tongren Hospital), SK-BR-3 tumor cells (human breast cancer cells, Wuhan Punosai, Cat. No. CL-0211) and NCI-N87 tumor cells (human gastric cancer cells, Cell Resource Center, Institute of Basic Medical Sciences, Chinese Academy of Medical Sciences, Cat. No. 3111C0001CCC000481). The cells were treated with different concentrations of the compounds in vitro and cultured for 6 days, then the in vitro activity of the test compounds was evaluated based on IC50 values by measuring the number of viable cells using CCK8 (Cell Counting Kit-8, Cat. No. TS547) reagent.
(§2) Taking the test method of in vitro killing activity against A549 cells, SK-BR-3 cells and NCI-N87 cells as an example, the test was carried out as follows. […] After the cells were completely digested, 10 mL cell culture medium containing 10% FBS was added, the digested cells were eluted, centrifuged at 300 g for 5 min, and the supernatant was discarded. […]

NCI-N87 tumor cells = system: NCI-N87 tumor cells
Method: as §1, §2

SK-BR-3 tumor cells = system: SK-BR-3 tumor cells
Method: as §1, §2

[1] = conclusion in words, comparison with Reference 1 at the same dose

O=C1OCc2c(cc3n(c2=O)Cc2c-3nc3cc4c(cc3c2CCCCO)OCO4)[C@@]1(O)CC1CC1 [Compound 3]
IC50 (A549 tumor cells; Homo sapiens, 144 h, A549 cells, 6 days, CCK8, 2% FBS): 1.68 nM | inhibitory effect on the proliferation of A549 cells in vitro (A549 tumor cells; [1]): significantly higher inhibitory effect | IC50 (NCI-N87 tumor cells; Homo sapiens, 144 h, NCI-N87 cells, 6 days, CCK8, 2% FBS): 0.44 nM | inhibitory effect on the proliferation of NCI-N87 cells in vitro (NCI-N87 tumor cells; [1]): significantly higher inhibitory effect | IC50 (SK-BR-3 tumor cells; Homo sapiens, 144 h, SK-BR-3 cells, 6 days, CCK8, 2% FBS): 0.24 nM | inhibitory effect on the proliferation of SK-BR-3 cells in vitro (SK-BR-3 tumor cells; [1]): significantly higher inhibitory effect
